According to patent publication US20130029970A1 (priority 2009, published 2013):
Read-outs that look alike come from different tables or passages of the source.

Columns and labels:
human CB2 (hCB2) = target: T1, human CB2 (hCB2) (Homo sapiens, UniProt P34972); experiment: 35S GTPγS binding assay, hCB2 agonist; type: biochemical
T1 construct: (cDNA clone) CNR0200000
Procedure, shortened: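 Membranes (5 μg) from cells transfected with hCB2 cDNA in pcDNA3.1+ incubated with SPA beads, 0.1 nM [35S]GTPγS and 20 uM GDP in 50 mM HEPES pH 7.4, 100 mM NaCl, 5 mM MgCl2, 0.001% saponin, ± test compound. Incubation 90 min at room temperature; bound label read by scintillation counting.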

human CB1 receptors = target: T2, human CB1 receptors (Homo sapiens, UniProt P21554); experiment: cAMP assay in HEK-293 cells, hCB1 agonist; type: cell-based
T2 construct: (cDNA clone) CNR01L000
Procedure, shortened: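 Stable hCB1 HEK-293 cells suspended in HBSS with 10 mM HEPES and 0.1% fatty acid-free BSA, incubated 30 min at 37° C. with compound plus forskolin (90 uM in the 3× compound solution). Lysed cAMP measured by enzyme-fragment kit; EC50 = 50% inhibition of forskolin-stimulated cAMP (forskolin maximum = 100%), sigmoidal fit.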

[1] = target: T3, recombinant human cannabinoid receptor CB2 (Homo sapiens, UniProt P34972); experiment: Cannabinoid receptor radioligand binding assay, [3H]-CP 55,940 displacement, hCB2
T3 construct: (cDNA clone) CNR0200000
Procedure, shortened: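 Membranes from hCB2-transfected cells, prepared by 1000×g then 40,000×g centrifugation, resuspended in 20 mM HEPES pH 7.4, 5 mM MgCl2, 1 mM EDTA, 10% sucrose.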

[2] = inhibition of forskolin-stimulated cAMP, HEK-293 cells
[3] = inhibition of forskolin-stimulated cAMP, HEK-293 cells, read-out: hCB1 EC50 (cAMP ag)

T2 sequence (P21554 whole entry): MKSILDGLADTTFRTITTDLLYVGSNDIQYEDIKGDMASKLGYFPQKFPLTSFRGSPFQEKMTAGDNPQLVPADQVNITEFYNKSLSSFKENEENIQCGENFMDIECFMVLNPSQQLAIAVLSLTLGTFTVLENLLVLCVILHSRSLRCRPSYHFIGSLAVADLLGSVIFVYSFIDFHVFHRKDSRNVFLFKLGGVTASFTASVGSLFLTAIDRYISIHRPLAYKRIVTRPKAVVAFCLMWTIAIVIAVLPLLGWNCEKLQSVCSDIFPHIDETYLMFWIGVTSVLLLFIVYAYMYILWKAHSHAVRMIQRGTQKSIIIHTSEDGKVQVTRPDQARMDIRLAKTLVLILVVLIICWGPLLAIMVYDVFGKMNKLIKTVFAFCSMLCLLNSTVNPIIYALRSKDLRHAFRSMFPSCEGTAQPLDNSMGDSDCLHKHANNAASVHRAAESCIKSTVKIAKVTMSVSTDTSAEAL
T1 sequence (P34972 whole entry): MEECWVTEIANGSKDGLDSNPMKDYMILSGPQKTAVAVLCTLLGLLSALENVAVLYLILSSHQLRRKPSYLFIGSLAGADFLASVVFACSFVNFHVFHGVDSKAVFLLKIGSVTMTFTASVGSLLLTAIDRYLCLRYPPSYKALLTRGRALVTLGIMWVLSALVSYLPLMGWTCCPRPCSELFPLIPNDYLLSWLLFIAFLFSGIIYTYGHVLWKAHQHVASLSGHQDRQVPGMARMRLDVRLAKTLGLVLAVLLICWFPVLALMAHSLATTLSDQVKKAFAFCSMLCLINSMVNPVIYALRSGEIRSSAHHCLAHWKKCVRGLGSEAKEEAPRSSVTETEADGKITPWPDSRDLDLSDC
T3 sequence (P34972 whole entry): as above

Structure (SMILES)	EC50 (human CB2 (hCB2)) [nM]	hCB1 EC50 (cAMP ag, nM) (human CB1 receptors; [2])	IC50 [1] [nM]	EC50 (human CB1 receptors; [3]) [nM]	EC50 (human CB1 receptors) [nM]
C=Cn1c(C)cc2cc(C(=O)c3cccc(Cl)c3Cl)sc21 [Comp 29]	100 to 1000	NS (NS means “Not Significant,” which means less than 30% agonist activity when compared to the positive control.)	1000 to 10000		
Cc1cc2cc(C(=O)c3cccc(Cl)c3Cl)sc2n1CCN1CCOCC1 [Compound 1, (2,3-dichlorophenyl)(5-methyl-6-(2-morpholinoethyl)-6H-thieno[2,3-b]pyrrol-2-yl)methanone]	< 100		< 100	> 10000	
CCCn1c(C)cc2cc(C(=O)c3cccc(Cl)c3Cl)sc21 [Compound 3, (2,3-Dichlorophenyl)(5-methyl-6-propyl-6H-thieno[2,3-b]pyrrol-2-yl)methanone]	< 100	NS (NS means “Not Significant,” which means less than 30% agonist activity when compared to the positive control.)	100 to 1000		
Cc1cc2cc(C(=O)c3ccccc3Cl)sc2n1CCN1CCOCC1 [Compound 5, (2-Chlorophenyl)(5-methyl-6-(2-morpholinoethyl)-61-1-thieno[2,3-b]pyrrol-2-yl)methanone]	< 100		< 100	100 to 1000	
Cc1cc2cc(C(=O)c3ccc(Cl)cc3)sc2n1CCN1CCOCC1 [Compound 6, (4-Chlorophenyl)(5-methyl-6-(2-morpholinoethyl)-6H-thieno[2,3-b]pyrrol-2-yl)methanone]	< 100	NS (NS means “Not Significant,” which means less than 30% agonist activity when compared to the positive control.)	100 to 1000		
Cc1cc2cc(C(=O)c3cccc(F)c3F)sc2n1CCN1CCOCC1 [Compound 8, (2,3-Difluorophenyl)(5-methyl-6-(2-morpholinoethyl)-6H-thieno[2,3-b]pyrrol-2-yl)methanone]	100 to 1000	NS (NS means “Not Significant,” which means less than 30% agonist activity when compared to the positive control.)	100 to 1000		
Cc1cc2cc(C(=O)c3ccc(Cl)c(Cl)c3)sc2n1CCN1CCOCC1 [Compound 9, (3,4-Dichlorophenyl)(5-methyl-6-(2-morpholinoethyl)-6H-thieno[2,3-b]pyrrol-2-yl)methanone]	1000 to 10000	NS (NS means “Not Significant,” which means less than 30% agonist activity when compared to the positive control.)	100 to 1000		
Cc1cc2cc(C(=O)c3cccc4c3OCC4)sc2n1CCN1CCOCC1 [Compound 11, (2,3-Dihydrobenzofuran-7-yl)(5-methyl-6-(2-morpholinoethyl)-6H-thieno[2,3-b]pyrrol-2-yl)methanone]	< 100		100 to 1000	100 to 1000	
COc1ccccc1C(=O)c1cc2cc(C)n(CCN3CCOCC3)c2s1 [Compound 13, (2-Methoxyphenyl)(5-methyl-6-(2-morpholinoethyl)-6H-thieno[2,3-b]pyrrol-2-yl)methanone]	< 100		< 100	100 to 1000	
Cc1cc2cc(C(=O)c3ccccc3OC(F)(F)F)sc2n1CCN1CCOCC1 [Compound 15, (5-Methyl-6-(2-morpholinoethyl)-6H-thieno[2,3-b]pyrrol-2-yl)(2-(trifluoromethoxy)phenyl)methanone]	< 100		< 100	100 to 1000	
Cc1cc2cc(C(=O)c3cccnc3Cl)sc2n1CCN1CCOCC1 [Compound 17, (2-Chloropyridin-3-yl)(5-methyl-6-(2-morpholinoethyl)-6H-thieno[2,3-b]pyrrol-2-yl)methanone]	100 to 1000	NS (NS means “Not Significant,” which means less than 30% agonist activity when compared to the positive control.)	100 to 1000		
Cc1cc2cc(C(=O)c3cccc(Cl)c3Cl)sc2n1CCC1CCOCC1 [Compound 18, (2,3-Dichlorophenyl)(5-methyl-6-(2-(tetrahydro-2H-pyran-4-yl)ethyl)-6H-thieno[2,3-b]pyrrol-2-yl)methanone]	< 100		< 100	100 to 1000	
COCCn1c(C)cc2cc(C(=O)c3cccc(Cl)c3Cl)sc21 [Compound 21, (2,3-Dichlorophenyl)(6-(2-methoxyethyl)-5-methyl-6H-thieno[2,3-b]pyrrol-2-yl)methanone]	< 100		100 to 1000	1000 to 10000	
Cc1cc2cc(C(=O)c3cccc(Cl)c3Cl)sc2n1CCN1CCCCC1 [Compound 23, (2,3-Dichlorophenyl)(5-methyl-6-(2-(piperidin-1-yl)ethyl)-6H-thieno[2,3-b]pyrrol-2-yl)methanone]	< 100	NS (NS means “Not Significant,” which means less than 30% agonist activity when compared to the positive control.)	< 100		
Cc1cc2cc(C(=O)c3cccc(Cl)c3Cl)sc2n1CC1CCCCN1C (stereo not drawn) [Compound 24, (2,3-Dichlorophenyl)(5-methyl-6((1-methylpiperidin-2-yl)methyl)-6H-thieno[2,3-b]pyrrol-2-yl)methanone]	< 100	NS (NS means “Not Significant,” which means less than 30% agonist activity when compared to the positive control.)	< 100		
Cc1c(Cl)c2cc(C(=O)c3cccc(Cl)c3Cl)sc2n1CCN1CCOCC1 [Compound 27, (4-chloro-5-methyl-6-(2-morpholinoethyl)-6H-thieno[2,3-b]pyrrol-2-yl)(2,3-dichlorophenyl)methanone]	< 100		< 100		100 to 1000
Cc1cc2cc(C(=O)c3cccc(Cl)c3Cl)sc2n1CCN1CCCC1 [Compound 28, (2,3-Dichlorophenyl)(5-methyl-6-(2-(pyrrolidin-1-yl)ethyl)-6H-thieno[2,3-b]pyrrol-2-yl)methanone]	< 100	NS (NS means “Not Significant,” which means less than 30% agonist activity when compared to the positive control.)	< 100		
Cc1cc2cc(C(=O)c3cc(Cl)ccc3Cl)sc2n1CCN1CCOCC1 [Compound 35, (2,5-Dichlorophenyl)(5-methyl-6-(2-morpholinoethyl)-6H-thieno[2,3-b]pyrrol-2-yl)methanone]	< 100	NS (NS means “Not Significant,” which means less than 30% agonist activity when compared to the positive control.)	< 100		
COCCN(C)CCn1c(C)cc2cc(C(=O)c3ccc(OC)nc3)sc21 [Compound 157]	1000 to 10000	NS (NS means “Not Significant,” which means less than 30% agonist activity when compared to the positive control.)			
COc1ccc(C(=O)c2cc3cc(C)n(CC(OC)OC)c3s2)cn1 [Compound 161, (6-(2,2-dimethoxyethyl)-5-methyl-6H-thieno[2,3-b]pyrrol-2-yl)(6-methoxypyridin-3-yl)methanone]	1000 to 10000	NS (NS means “Not Significant,” which means less than 30% agonist activity when compared to the positive control.)			
Cc1cc2cc(C(=O)c3ccc(O)cc3F)sc2n1CCN1CCOCC1 [Compound 165, (2-fluoro-4-hydroxyphenyl)(5-methyl-6-(2-morpholinoethyl)-6H-thieno[2,3-b]pyrrol-2-yl)methanone]	100 to 1000			100 to 1000	
